The text below walks through data of patent US20130079345A1, “[…] ACTIVE DISUBSTITUTED TRIAZINE DERIVATIVES” (BAYER INTELLECTUAL PROPERTY GMBH, priority 2010, published 2013).

One assay deals with T1, CDK2/CyclinA (Homo sapiens, UniProt P24941).
T1 construct: purchased Proqinase
Description: LanthaScreen Eu Kinase Binding Assay, CDK2. Conditions: tracer 236, read-out: Affinity (Kd) CDK2. A digest of the protocol: (§1)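 TR-FRET competition binding with Alexa Fluor 647 tracer and Eu-anti-GST antibody; e.g. CDK2/Cyclin A 15 nM with tracer 236 60 nM (working solutions). Kinase buffer: HEPES 20 mM pH 8.0, MgCl2 10 mM, DTT 1 mM, Brij-35 0.01%; 8-point 1:3 series, 1 h at room temperature; Kd from sigmoidal dose-response curves.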
Background: Time-resolved FRET reads energy transfer from a long-lived donor to a nearby acceptor.

The target in the next assay is T2, CDK9/Cyclin K (Homo sapiens, UniProt P50750).
T2 construct: purchased Invitrogen
Description: LanthaScreen Eu Kinase Binding Assay, CDK9/Cyclin K. Conditions: tracer 236, read-out: Affinity (Kd) CDK9/Cyclin K. A digest of the protocol:
as §1

In another assay the target is T3, CDK1/CyclinB1 (Homo sapiens, UniProt P06493).
T3 construct: purchased Carna
Kind of assay: Lance Ultra KinaSelect Assay, CDK1. It counts as biochemical. Conditions: ATP 20 μM, read-out: Inhibition (IC50) CDK1. The procedure: This protocol describes how the Lance Ultra KinaSelect Assay was performed to determine half maximal inhibitory concentration (IC50) of compounds of general formula (I) and CDK/Cyclin complexes. The principle behind this enzymatic assay is based upon the phosphorylation of the ULight-Peptide Substrat. It is detected by using a specific EU-labeled anti-phospho peptide antibody. The binding of the Eu-labeled anti-phospho peptide antibody to the phosphorylated U Light labeled peptide gives rise to a FRET-signal. Binding of an inhibitor to the kinase prevents phosphorylation of the ULight-MBP Substrat, resulting in a loss of FRET.
The compounds of general formula (I) summarized in Table 5 were diluted from a 10 mM DMSO stock solution 1:10 in a total volume of 15 μL DMSO. This compound predilution was then serial diluted 1:3 over 8 steps in DMSO and briefly spun down. Each compound solution was now diluted 1:20 in Enzymatic Buffer (HEPES: 50 mM, pH: 7.5; MgCl2: 10 mM; EGTA: 1 mM; DTT: 2 mM; Tween-20: 0.01%), mixed thoroughly and spun down. For every sample, 2 μL of the diluted compound were mixed with 6 μL CDK/Cyclin/Substrat solution and […] in a well of a small volume 384 well plate (Corning Incorporated, Corning, N.Y., USA; order no. 3673). […] For positive controls, in each well 2 μL of DMSO solution (1% final DMSO assay concentration) was mixed with 6 μL CDK/Cyclin/Substrat (appropriate final concentration see Table 3) and 2 μL Tracer ATP solution (appropriate final concentration see Table 3). Positive and negative controls were calculated from at least 8 different sample wells. The 384 well plates were mixed in a Teleshaker plate mixer (Beckman Coulter, Brea, Calif., USA) at 2000 rpm for 40 sec, and incubated for 1 h at room temperature. Before reading, 10 μL detection buffer (Lance Detection Buffer 1×; EDTA: […]; Eu-Anti-P-MBP: see Table 3) was added. The FRET signal was measured at 340 nm excitation, 665 nm and 615 nm emission (for the kinase tracer and LanthaScreen Eu-AB, respectively) with an Envision spectrophotometer (Perkin Elmer, Waltham, Mass., USA) with 50 μs delay and 300 μs integration time. IC50 values were determined from the sigmoidal dose response curves with the software Quattro Workflow (Quattro GmbH, Munich, Germany).

pIC50, pKd: −log10 of the molar value. Where a name gives a salt, the structure may show the parent alone.

T3 sequence (P06493 whole entry): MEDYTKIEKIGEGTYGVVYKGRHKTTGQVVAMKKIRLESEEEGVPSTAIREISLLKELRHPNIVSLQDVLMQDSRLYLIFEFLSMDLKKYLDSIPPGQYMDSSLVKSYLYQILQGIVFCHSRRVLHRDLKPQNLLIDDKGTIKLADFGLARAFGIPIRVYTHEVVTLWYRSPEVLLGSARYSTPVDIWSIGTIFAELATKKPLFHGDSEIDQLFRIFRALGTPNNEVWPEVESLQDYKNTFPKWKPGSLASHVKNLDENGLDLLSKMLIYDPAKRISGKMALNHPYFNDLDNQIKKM
T3 sequence (P14635 whole entry partner): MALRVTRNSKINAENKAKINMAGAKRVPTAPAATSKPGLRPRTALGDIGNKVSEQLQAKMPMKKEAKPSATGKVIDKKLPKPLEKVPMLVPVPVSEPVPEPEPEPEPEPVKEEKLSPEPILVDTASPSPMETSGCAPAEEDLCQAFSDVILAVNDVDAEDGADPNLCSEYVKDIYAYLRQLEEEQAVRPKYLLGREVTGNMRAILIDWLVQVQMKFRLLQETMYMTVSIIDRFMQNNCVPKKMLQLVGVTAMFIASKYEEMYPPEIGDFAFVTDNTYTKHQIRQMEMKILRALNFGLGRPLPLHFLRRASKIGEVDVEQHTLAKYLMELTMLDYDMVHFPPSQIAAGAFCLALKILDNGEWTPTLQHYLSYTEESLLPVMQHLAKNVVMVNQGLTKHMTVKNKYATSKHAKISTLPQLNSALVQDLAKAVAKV
T2 sequence (P50750 whole entry): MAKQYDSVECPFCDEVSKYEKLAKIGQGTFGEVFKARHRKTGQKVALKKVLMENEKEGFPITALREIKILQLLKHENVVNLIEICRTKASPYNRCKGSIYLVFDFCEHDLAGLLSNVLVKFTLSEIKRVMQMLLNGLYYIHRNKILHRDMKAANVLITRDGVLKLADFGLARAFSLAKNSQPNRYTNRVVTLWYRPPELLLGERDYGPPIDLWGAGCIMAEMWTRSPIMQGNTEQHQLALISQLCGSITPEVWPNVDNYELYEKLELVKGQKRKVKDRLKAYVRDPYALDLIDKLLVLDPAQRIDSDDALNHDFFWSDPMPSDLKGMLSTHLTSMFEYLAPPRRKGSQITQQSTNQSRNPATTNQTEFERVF
T2 sequence (O75909 whole entry partner): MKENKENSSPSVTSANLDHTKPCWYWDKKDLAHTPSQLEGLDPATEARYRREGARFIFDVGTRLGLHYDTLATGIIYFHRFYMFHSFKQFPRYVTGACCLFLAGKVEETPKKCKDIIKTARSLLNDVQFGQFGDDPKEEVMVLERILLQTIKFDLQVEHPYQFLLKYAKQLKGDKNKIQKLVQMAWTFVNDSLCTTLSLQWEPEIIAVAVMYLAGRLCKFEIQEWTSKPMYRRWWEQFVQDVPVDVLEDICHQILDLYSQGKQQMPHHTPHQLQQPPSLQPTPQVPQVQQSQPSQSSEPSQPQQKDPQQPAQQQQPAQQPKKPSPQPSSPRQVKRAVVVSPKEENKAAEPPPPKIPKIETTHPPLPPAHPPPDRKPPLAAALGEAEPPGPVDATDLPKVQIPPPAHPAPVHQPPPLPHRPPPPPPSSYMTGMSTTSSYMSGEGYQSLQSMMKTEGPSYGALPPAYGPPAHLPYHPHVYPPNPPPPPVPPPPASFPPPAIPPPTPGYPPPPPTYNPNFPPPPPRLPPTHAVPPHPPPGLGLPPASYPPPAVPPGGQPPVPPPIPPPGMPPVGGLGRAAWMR

Take `NS(=O)(=O)Cc1cccc(Nc2ncnc(-c3ccccc3OCc3ccccc3)n2)c1` [Compound B13, 3-[(4-(2-Benzyloxyphenyl)-1,3,5-triazin-2-yl)amino]benzenemethanesulfonamide]: the pKd on CDK2/CyclinA is 6.16.

Usually pIC50 stands for the IC50 on a negative log10 scale, so that one unit is a factor of ten. For the compound `COc1cc(Cl)ccc1-c1ncnc(Nc2cccc(CS(N)(=O)=O)c2)n1` [Compound B6, 3-[(4-(4-Chloro-2-methoxyphenyl)-1,3,5-triazin-2-yl)amino]benzenemethanesulfonamide], on CDK9/Cyclin K, the pKd was 7.90. Moreover, at CDK1/CyclinB1, the pIC50 is under 5.00.

In the case of `COc1ccc(F)cc1-c1ncnc(Nc2cccc(CS(N)(=O)=O)c2)n1` [Compound B3, 3-[(4-(5-Fluoro-2-methoxyphenyl)-1,3,5-triazin-2-yl)amino]benzenemethanesulfonamide], the pKd at CDK9/Cyclin K was 8.30; at CDK2/CyclinA it was 6.43.

In the case of `NS(=O)(=O)Cc1cccc(Nc2ncnc(-c3ccccc3OCc3ccncc3)n2)c1` [Compound B16, 3-[(4-(2-((4-Pyridinyl)methoxy)phenyl)-1,3,5-triazin-2-yl)amino]benzenemethanesulfonamide], the pKd at CDK9/Cyclin K is 8.24; at CDK2/CyclinA it was 5.77. For the same compound, the pIC50 at CDK1/CyclinB1 is 5.17.

As for `COc1cc(F)ccc1-c1ncnc(Nc2cccc(CS(N)(=O)=O)c2)n1` [B2″, 1-(3-{[4-(4-fluoro-2-methoxyphenyl)-1,3,5-triazin-2-yl]amino}phenyl)methanesulfonamide trifluoroacetic acid salt], the pKd at CDK9/Cyclin K is 8.30. Moreover, the negative-log IC50 (pIC50) at CDK1/CyclinB1 was 6.05.

For the compound `NS(=O)(=O)Cc1cccc(Nc2ncnc(-c3ccccc3OCc3ccccc3)n2)c1` [B13′, 3-[(4-(2-Benzyloxyphenyl)-1,3,5-triazin-2-yl)amino]benzenemethanesulfonamide trifluoroacetic acid salt], the pKd on CDK9/Cyclin K is 8.30; at CDK2/CyclinA it was 7.06. On CDK1/CyclinB1, the pIC50 was 5.47.

Turning to `CCOc1ccccc1-c1ncnc(Nc2cccc(CS(N)(=O)=O)c2)n1` [Compound B12, 3-[(4-(2-Ethoxyphenyl)-1,3,5-triazin-2-yl)amino]benzenemethanesulfonamide], the pKd on CDK9/Cyclin K is 7.95; on CDK2/CyclinA, 5.63. For the same compound, the pIC50 on CDK1/CyclinB1 was 4.94.

With `COc1ccccc1-c1ncnc(Nc2cccc(NS(C)(=O)=O)c2)n1` [Compound K1, N-[3-((4-(2-Methoxyphenyl)-1,3,5-triazin-2-yl)amino)phenyl]-methanesulfonamide], the results for the pKd at CDK9/Cyclin K and at CDK2/CyclinA were 7.44 and 6.55, respectively. The pIC50 at CDK1/CyclinB1 is under 5.00.

Regarding `COc1cc(F)ccc1-c1ncnc(Nc2cccc(CS(N)(=O)=O)c2)n1` [B2′, 1-(3-{[4-(4-fluoro-2-methoxyphenyl)-1,3,5-triazin-2-yl]amino}phenyl)methanesulfonamide hydrochloride], the pKd on CDK2/CyclinA was 6.68.

Consider `CCCS(=O)(=O)Nc1cccc(Nc2ncnc(-c3ccccc3OC)n2)c1` [Compound L1, N-[3-((4-(2-Methoxyphenyl)-1,3,5-triazin-2-yl)amino)phenyl]-propanesulfonamide], for which the pIC50 at CDK1/CyclinB1 was under 5.00.

For the compound `COc1cnccc1-c1ncnc(Nc2cccc(CS(N)(=O)=O)c2)n1` [Compound B19, 3-[(4-(3-Methoxypyridin-4-yl)-1,3,5-triazin-2-yl)amino]benzenemethanesulfonamide], the pKd on CDK9/Cyclin K was 7.94.

For `COc1ccccc1-c1ncnc(Nc2cccc(CS(N)(=O)=O)c2)n1` [B1′, 3-[(4-(2-Methoxyphenyl)-1,3,5-triazin-2-yl)amino]benzenemethanesulfonamide trifluoroacetic acid salt], the pKd was 7.31 at CDK9/Cyclin K and 6.10 at CDK2/CyclinA. Also, at CDK1/CyclinB1, the pIC50 was 4.92.

For the compound `COc1cc(F)ccc1-c1ncnc(Nc2cccc(CCS(N)(=O)=O)c2)n1` [Compound D2, 2-[3-((4-(4-Fluoro-2-methoxyphenyl)-1,3,5-triazin-2-yl)amino)phenyl]ethanesulfonamide], the results for the pKd at CDK9/Cyclin K and at CDK2/CyclinA were 8.30 and over 8.30, respectively. Moreover, the pIC50 on CDK1/CyclinB1 was under 5.00.

As for `COc1ccccc1-c1ncnc(Nc2cccc(CCS(N)(=O)=O)c2)n1` [Compound D1, 2-[3-((4-(2-Methoxyphenyl)-1,3,5-triazin-2-yl)amino)phenyl]ethanesulfonamide], the pKd was 7.00 at CDK9/Cyclin K and 6.51 on CDK2/CyclinA. Further, on CDK1/CyclinB1, the pIC50 is 5.59.

Regarding `COc1ccccc1-c1ncnc(Nc2ccccc2)n1` [Compound P1, 4-(2-Methoxyphenyl)-N-phenyl-1,3,5-triazine-2-amine], the pKd on CDK2/CyclinA is 6.15.

As to `COc1ccccc1-c1ncnc(Nc2cccc(S(N)(=O)=O)c2)n1` [C1′, 3-[(4-(2-Methoxyphenyl)-1,3,5-triazin-2-yl)amino]benzenesulfonamide trifluoroacetic acid salt], the pKd was 8.30 at CDK9/Cyclin K and 6.66 on CDK2/CyclinA. In addition, the pIC50 on CDK1/CyclinB1 was 5.87.

Regarding `NS(=O)(=O)Cc1cccc(Nc2ncnc(-c3ccccc3Oc3ccccc3)n2)c1` [Compound B14, 1-(3-{[4-(2-phenoxyphenyl)-1,3,5-triazin-2-yl]amino}phenyl)methanesulfonamide], the values for the pKd at CDK9/Cyclin K and on CDK2/CyclinA were 7.58 and 5.46, respectively.

Regarding `COc1cccc(F)c1-c1ncnc(Nc2cccc(CS(N)(=O)=O)c2)n1` [Compound B4, 3-[(4-(6-Fluoro-2-methoxyphenyl)-1,3,5-triazin-2-yl)amino]benzenemethanesulfonamide], the results for the pKd at CDK9/Cyclin K and on CDK2/CyclinA were 7.68 and 6.15, respectively. In addition, on CDK1/CyclinB1, the pIC50 is 5.25.

Turning to `COc1ccccc1-c1ncnc(Nc2cccc([N+](=O)[O-])c2)n1` [Compound H1, 4-(2-Methoxyphenyl)-N-(3-nitrophenyl)-1,3,5-triazine-2-amine], the pKd at CDK9/Cyclin K was 7.80; at CDK2/CyclinA, 7.17.
